Source: patent publication US5633219A, “5H-pyrrolo(3',4':5,6)(1,4)dithiin o(2,3-C)(1,2,5)thiadiazole-5,7(6H)-dione, compositions containing them and their use as antimicrobial and marine antifouling agents” (The Dow Chemical Company, priority 1996, dated 1997)
In brackets after ≈: the same amount, converted by molar mass. Like-named read-outs stand apart in the source and are kept apart here.

Key:
[1] = tested on: Penicillium chrysogenum (PC); experiment: Minimum inhibitory concentration, malt yeast agar, Penicillium chrysogenum; format: cell-based, Penicillium chrysogenum ATCC 9480; settings: malt yeast agar, 30° C, 72 hours (fungi); read-out: Minimum Inhibitory Concentration, Pc
Experimental: (§1) Malt yeast agar is prepared by adding 3 g yeast extract and 45 g malt agar per liter of deionized water. The specific agar is dispensed in 30 mL aliquots into 25×200 mm test tubes, capped and autoclaved for 15 minutes at 115° C.
(§2) The inoculation with the yeast and fungi is accomplished as follows. Cultures of yeast and fungi are incubated for seven days on malt yeast agar at 30° C. These cultures are used to prepare suspensions by the following procedure. A suspension of each organism is prepared by adding 10 mL of sterile saline and 10 microliters of octylphenoxy polyethoxy ethanol to the agar slant of yeast or fungi. The sterile saline/octylphenoxy polyethoxy ethanol solution is then agitated with a sterile swab to suspend the microorganism grown on the slant. Each resulting suspension is diluted into sterile saline (1 part suspension to 9 parts sterile saline). Aliquots of these dilutions are placed in individual wells of Steer's Replicator and petri plates inoculated as previously described. The petri plates are incubated at 30° C. and read after 48 hours for yeast and 72 hours for fungi.

Candida albicans (Ca) = experiment: Minimum inhibitory concentration, malt yeast agar, Candida albicans; format: cell-based, Candida albicans ATCC 10231; settings: malt yeast agar, 30° C, 48 hours (yeast); read-out: Minimum Inhibitory Concentration, Ca
Experimental: as §1, §2

Trichoderma viride (Tv) = experiment: Minimum inhibitory concentration, malt yeast agar, Trichoderma viride; format: cell-based, Trichoderma viride ATCC 8678; settings: malt yeast agar, 30° C, 72 hours (fungi); read-out: Minimum Inhibitory Concentration, Tv
Experimental: as §1, §2

[2] = tested on: Salmonella choleraesuis (Sc); experiment: Minimum inhibitory concentration, nutrient agar, Salmonella choleraesuis; format: cell-based, Salmonella choleraesuis ATCC 10708; settings: Salmonella enterica, 30° C, 48 hours
Bacillus subtilis (Bs) = experiment: Minimum inhibitory concentration, nutrient agar, Bacillus subtilis; settings: 48 h
[3] = tested on: Saccharomyces cerevisiae (Sc); experiment: Minimum inhibitory concentration, malt yeast agar, Saccharomyces cerevisiae; format: cell-based, Saccharomyces cerevisiae ATCC 4105; settings: malt yeast agar, 30° C, 48 hours (yeast), read-out: Minimum Inhibitory Concentration, Sc
Experimental: as §1, §2

Proteus vulgaris (Pv) = experiment: Minimum inhibitory concentration, nutrient agar, Proteus vulgaris; settings: 48 h
Fusarium oxysporum (Of) = experiment: Minimum inhibitory concentration, malt yeast agar, Fusarium oxysporum; format: cell-based, Fusarium oxysporum ATCC 48112; settings: 30° C, 72 hours (fungi), read-out: Minimum Inhibitory Concentration, Fo
Experimental: as §1, §2

[4] = tested on: Enterobacter aerogenes (Ea); experiment: Minimum inhibitory concentration, nutrient agar, Enterobacter aerogenes; settings: Klebsiella aerogenes, 48 h
[5] = tested on: Aureobasidium pullulan (Ap); experiment: Minimum inhibitory concentration, malt yeast agar, Aureobasidium pullulan; format: cell-based, Aureobasidium pullulan ATCC 16622; settings: 30° C, 48 hours for yeast and 72 hours for fungi
Experimental: as §1, §2

[6] = tested on: Pseudomonas aeruginosa (Pa); experiment: Minimum inhibitory concentration, nutrient agar, Pseudomonas aeruginosa; format: cell-based, Pseudomonas aeruginosa ATCC 10145; settings: pH 8.2, nutrient agar, 30° C, 48 hours
marine organisms = experiment: Marine antifouling rating of coated test panels exposed under a marine surface; settings: scale 10 (completely free of growth) to 0 (completely covered), 1.0 g compound in 9.0 g latex binder
Experimental: Test panels are prepared from clear, rigid polyvinyl chloride film that is 0.381×10^-3 m thick and has one textured surface. The test panels are 0.1524 m by 0.1524 m squares that have 0.00635 m holes punched at corners on 0.127 m centers. A 0.102 square template, with a 0.067 m diameter hole at the center, is attached to the center of the textured surface of the test panels.
A candidate marine antifoulant compound (1.0 g) is stirred into a resinous latex binder (9.0 g). A portion of the compound/binder mixture (1.5 g) is added to the center of the test panel and uniformly spread over the circular area inside the template.
Water is added dropwise as needed to properly spread the compound/binder mixture. The template prevents the compound/binder mixture from spreading beyond the uncovered area. The test panel is allowed to sit for between 10 to 30 minutes until the edge of the spread compound/binder mixture has dried. The template is then removed. The test panel is then allowed to dry for 8 to 12 hours at room temperature.
Two test panels are prepared for each candidate marine antifoulant compound. Two control test panels are also prepared by only treating with the resinous latex binder. One test panel of each candidate marine […] compound is attached over a white background to the topside of an exposure support apparatus. The second test panel is attached over a black background to the underside of the exposure support apparatus. The exposure support apparatus is placed horizontally 0.0254 m under a marine surface with the white background topside facing up. […]
After being removed from the exposure support apparatus, each test panel is inspected and rated for marine organism growth on both the treated and untreated areas of the test panel. The marine organisms present on the treated and untreated areas are noted. The presence of algae spores and bacterial slime are noted but not included in rating each test panel. The test panels are rated on a scale from 10 (representing completely free of marine organism growth) to 0 (representing completely covered with marine organism growth).

[7] = tested on: Klebsiella pneumoniae (Kp); experiment: Minimum inhibitory concentration, nutrient agar, Klebsiella pneumoniae; settings: 48 h
Escherichia coli (Ec) = experiment: Minimum inhibitory concentration, nutrient agar, Escherichia coli; settings: 48 h
[8] = tested on: Staphylococcus aureus (Sa); experiment: Minimum inhibitory concentration, nutrient agar, Staphylococcus aureus; settings: 48 h
Aspergillus niger (An) = experiment: Minimum inhibitory concentration, malt yeast agar, Aspergillus niger; format: cell-based, Aspergillus niger ATCC 16404; settings: 30° C, 72 hours (fungi)
Experimental: as §1, §2

[9] = tested on: Pseudomonas aeruginosa (PRD-10); experiment: Minimum inhibitory concentration, nutrient agar, Pseudomonas aeruginosa PRD-10; settings: 48 h

O=c1[nH]c(=O)c2sc3nsnc3sc1=2 [Example I, 5H-Pyrrolo(3',4':5,6)(1,4)dithiino-(2,3-C) (1,2,5)thiadiazole-5,7 (6H) -dione] gave an MIC [1] of under 1 µg/mL, an MIC (Candida albicans (Ca)) of 5 µg/mL (≈ 20.6 µM) and an MIC (Trichoderma viride (Tv)) of 5 µg/mL (≈ 20.6 µM). It also gave an MIC ([2]; pH 6.8, nutrient agar) of 100 µg/mL (≈ 411 µM), an MIC ([2]; pH 8.2, nutrient agar) of over 500 µg/mL and an MIC (Bacillus subtilis (Bs); pH 6.8, read-out: Minimum inhibitory Concentration, Bs) of under 10 µg/mL. The MIC (Bacillus subtilis (Bs); pH 8.2, read-out: Minimum inhibitory Concentration, Bs) was over 500 µg/mL, the MIC [3] was under 1 µg/mL and the MIC (Proteus vulgaris (Pv); pH 6.8, read-out: Minimum inhibitory Concentration, Pv) was 50 µg/mL (≈ 206 µM). It also gave an MIC (Proteus vulgaris (Pv); pH 8.2, read-out: Minimum inhibitory Concentration, Pv) of over 500 µg/mL, an MIC (Fusarium oxysporum (Of)) of under 1 µg/mL and an MIC ([4]; pH 6.8, read-out: Minimum inhibitory Concentration, Ea) of 250 µg/mL (≈ 1030 µM). It also gave an MIC ([4]; pH 8.2, read-out: Minimum inhibitory Concentration, Ea) of over 500 µg/mL, an MIC [5] of under 1 µg/mL and an MIC [6] of over 500 µg/mL. The “Marine Antifouling Rating, Bottom Panel” value (marine organisms; 6 weeks) was 10, the “Marine Antifouling Rating, Top Panel” value (marine organisms; 6 weeks) was 10 and the “Marine Antifouling Rating, Bottom Panel” value (marine organisms; 10 weeks) was 9. The “Marine Antifouling Rating, Top Panel” value (marine organisms; 10 weeks) was 7, the “Marine Antifouling Rating, Bottom Panel” value (marine organisms; 16 weeks) was 9 and the “Marine Antifouling Rating, Top Panel” value (marine organisms; 16 weeks) was 8. It also gave an MIC ([7]; pH 6.8, read-out: Minimum inhibitory Concentration, Kp) of 100 µg/mL (≈ 411 µM), an MIC ([7]; pH 8.2, read-out: Minimum inhibitory Concentration, Kp) of over 500 µg/mL and an MIC (Escherichia coli (Ec); pH 6.8, read-out: Minimum inhibitory Concentration, Ec) of 100 µg/mL (≈ 411 µM). It also gave an MIC (Escherichia coli (Ec); pH 8.2, read-out: Minimum inhibitory Concentration, Ec) of over 500 µg/mL, an MIC ([8]; pH 6.8, read-out: Minimum inhibitory Concentration, Sa) of 100 µg/mL (≈ 411 µM) and an MIC ([8]; pH 8.2, read-out: Minimum inhibitory Concentration, Sa) of over 500 µg/mL. The MIC (Aspergillus niger (An)) was under 1 µg/mL, the MIC ([9]; pH 6.8, read-out: Minimum inhibitory Concentration, PRD) was 500 µg/mL (≈ 2060 µM) and the MIC ([9]; pH 8.2, read-out: Minimum inhibitory Concentration, PRD) was over 500 µg/mL.
